Measurements as given in ChEMBL document CHEMBL1201862, “PubChem BioAssay data set” (2004).
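All cell lines were grown in 96-well plates and treated with compound for 48 hours. GI50 marks 50% less growth.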 The source made the active and inactive calls. Cut-off read from the data, not from the text of the source: active = GI50 up to about 1.1 µM and inactive = higher.

Columns and labels:
Assay in all cases: NCI anticancer screen, dose series, 48 h
MDA-MB-231 = test system: MDA-MB-231
SNB-19 = test system: SNB-19
HOP-18 = test system: HOP-18
HCC 2998 = test system: HCC 2998
SNB-78 = test system: SNB-78
K562 = test system: K562
IGROV-1 = test system: IGROV-1
MOLT-4 = test system: MOLT-4
RXF 631 = test system: RXF 631
OVCAR-3 = test system: OVCAR-3
DLD-1 = test system: DLD-1
CCRF-CEM = test system: CCRF-CEM
NCI-H23 = test system: NCI-H23
MDA-MB-435 = test system: MDA-MB-435
SR = test system: SR
KM-20L2 = test system: KM-20L2
UO-31 = test system: UO-31
DMS-114 = test system: DMS-114
COLO 205 = test system: COLO 205
SF-539 = test system: SF-539
SN12C = test system: SN12C
NCI-H522 = test system: NCI-H522
BT-549 = test system: BT-549
HT-29 = test system: HT-29
SK-MEL-5 = test system: SK-MEL-5
SK-MEL-28 = test system: SK-MEL-28
DU-145 = test system: DU-145
HL-60 = test system: HL-60
LXFL 529 = test system: LXFL 529
RPMI-8226 = test system: RPMI-8226
NCI-H460 = test system: NCI-H460
SW-620 = test system: SW-620
HCT-15 = test system: HCT-15
HOP-62 = test system: HOP-62
ACHN = test system: ACHN
UACC-62 = test system: UACC-62
NCI-H226 = test system: NCI-H226
XF498 = test system: XF498
786-0 = test system: 786-0
NCI/ADR-RES = test system: NCI/ADR-RES
KM12 = test system: KM12
TK-10 = test system: TK-10
Hs-578T = test system: Hs-578T
Malme-3M = test system: Malme-3M
A549 = test system: A549
HOP-92 = test system: HOP-92
OVCAR-5 = test system: OVCAR-5
SF-268 = test system: SF-268
U-251 = test system: U-251
T47D = test system: T47D
SF-295 = test system: SF-295
DMS-273 = test system: DMS-273
RXF 393 = test system: RXF 393
A498 = test system: A498
MDA-N = test system: MDA-N
EKVX = test system: EKVX
HCT-116 = test system: HCT-116
SK-OV-3 = test system: SK-OV-3
OVCAR-4 = test system: OVCAR-4
LOX IMVI = test system: LOX IMVI
CAKI-1 = test system: CAKI-1
MCF7 = test system: MCF7
UACC-257 = test system: UACC-257
SNB-75 = test system: SNB-75
OVCAR-8 = test system: OVCAR-8
M19-MEL = test system: M19-MEL
M14 = test system: M14

SMILES: Sc1nc(S)nc(Oc2ccc(Cl)c(Cl)c2)n1
- GI50 (MDA-MB-231): 39.4 µM (inactive)
- GI50 (SNB-19): > 65.2 µM (inactive)
- GI50 (HOP-18): 36.4 µM (inactive)
- GI50 (HCC 2998): 17.8 µM (inactive)
- GI50 (SNB-78): 34.4 µM (inactive)
- GI50 (K562): 16.5 µM (inactive)
- GI50 (IGROV-1): > 56.1 µM (inactive)
- GI50 (MOLT-4): 18.1 µM (inactive)
- GI50 (RXF 631): 16.3 µM (inactive)
- GI50 (OVCAR-3): 29.6 µM (inactive)
- GI50 (DLD-1): 27.1 µM (inactive)
- GI50 (CCRF-CEM): 23.2 µM (inactive)
- GI50 (NCI-H23): 27.2 µM (inactive)
- GI50 (MDA-MB-435): > 100 µM (inactive)
- GI50 (SR): 30.1 µM (inactive)
- GI50 (KM-20L2): 33.6 µM (inactive)
- GI50 (UO-31): 24.6 µM (inactive)
- GI50 (DMS-114): 19.1 µM (inactive)
- GI50 (COLO 205): > 42.3 µM (inactive)
- GI50 (SF-539): > 44.8 µM (inactive)
- GI50 (SN12C): 37.9 µM (inactive)
- GI50 (NCI-H522): 18.5 µM (inactive)
- GI50 (BT-549): 57.8 µM (inactive)
- GI50 (HT-29): 49.5 µM (inactive)
- GI50 (SK-MEL-5): 24.5 µM (inactive)
- GI50 (SK-MEL-28): > 54 µM (inactive)
- GI50 (DU-145): 57.9 µM (inactive)
- GI50 (HL-60): 40 µM (inactive)
- GI50 (LXFL 529): 34.9 µM (inactive)
- GI50 (RPMI-8226): 9.95 µM (inactive)
- GI50 (NCI-H460): 25.5 µM (inactive)
- GI50 (SW-620): > 61.4 µM (inactive)
- GI50 (HCT-15): 43.5 µM
- GI50 (HOP-62): 40 µM (inactive)
- GI50 (ACHN): 48.3 µM (inactive)
- GI50 (UACC-62): 31.3 µM (inactive)
- GI50 (NCI-H226): 38.1 µM (inactive)
- GI50 (XF498): 25.4 µM (inactive)
- GI50 (786-0): > 61.2 µM (inactive)
- GI50 (NCI/ADR-RES): 38 µM (inactive)
- GI50 (KM12): 14.6 µM (inactive)
- GI50 (TK-10): > 66.1 µM (inactive)
- GI50 (Hs-578T): 89.1 µM (inactive)
- GI50 (Malme-3M): > 47.2 µM (inactive)
- GI50 (A549): 22.4 µM (inactive)
- GI50 (HOP-92): 19.2 µM (inactive)
- GI50 (OVCAR-5): 59.2 µM (inactive)
- GI50 (SF-268): > 52.4 µM (inactive)
- GI50 (U-251): 44.8 µM (inactive)
- GI50 (T47D): 24.4 µM (inactive)
- GI50 (SF-295): 59 µM (inactive)
- GI50 (DMS-273): 19 µM (inactive)
- GI50 (RXF 393): < 0.01 µM (active)
- GI50 (A498): 24 µM (inactive)
- GI50 (MDA-N): 77.1 µM (inactive)
- GI50 (EKVX): 42.1 µM (inactive)
- GI50 (HCT-116): 30.6 µM (inactive)
- GI50 (SK-OV-3): > 51.5 µM (inactive)
- GI50 (OVCAR-4): 41.1 µM (inactive)
- GI50 (LOX IMVI): 18.1 µM (inactive)
- GI50 (CAKI-1): 46.3 µM (inactive)
- GI50 (MCF7): 50.6 µM (inactive)
- GI50 (UACC-257): 43.7 µM (inactive)
- GI50 (SNB-75): 30.3 µM (inactive)
- GI50 (OVCAR-8): 32.5 µM (inactive)
- GI50 (M19-MEL): 22.8 µM (inactive)
- GI50 (M14): 43.5 µM (inactive)
